Experimental data reported in publication PMC12598616, “Design and optimization of caspase-1-responsive fluorescent probes for pyroptosis imaging and anti-pyroptosis drug screening” (Chemical Science, 2025).

System: caspase-8
Experiment: Selectivity of probes: caspase-8
Type: biochemical, human
Details: caspase-8 1 μg/mL, 37 °C, 2 h, λex 510 nm, λem 585 nm
Description: The resin used for SPPS was purchased from GL Biochem (Shanghai, China). Lipopolysaccharide (LPS, L2630), Nigericin and ATP (11140965001) were purchased from Merck (Shanghai, China) and Invitrogen (Shanghai, China), respectively. Cell culture plates were sourced from Wuxi NEST Biotechnology. Recombinant human caspase-1, caspase-3, caspase-4, and caspase-8 were obtained from Abcam and MCE (Shanghai, China). Anti-cleaved caspase-1 antibody, anti-GAPDH antibody, and goat anti-Rabbit/anti-mouse lgG/HRP were purchased from CST (USA) and Beyotime […]
(Shanghai, China). […]
Medical College (ethical approval number ZJCLA-IACUC-20011003).
(also on this page, place not known: Wang,*f, Wang*abg Supplementary Information (SI) for Chemical Science. This journal is © The Royal Society of Chemistry 2025)
(1 picture or pasted object on this page, not shown here) […]
mixture was stirred for 3 h. […]
To investigate the sensitivity of the probes for caspase-1, varying concentration of caspase-1 (0, 0.2, 0.4, 0.6, 0.8, 1.0, 1.25, 1.5, 1.75, 2, 2.5, 3 U/mL) were incubated with FPy1 (5 μM), YPy1 (5 μM) and WPy1 (5 μM) respectively in caspase-1 assay buffer (50 mM HEPES, 50 mM NaCl, 0.1 % chaps, 5 % glycerol, 10 mM DTT, 10 mM EDTA) at 37 °C for 2 hours. Fluorescence spectra were recorded using Hitachi F-2700 spectrophotometer with an excitation at 510 nm (Photomultiplier voltage 700 V; Slit widths ex: 10 nm and em =5.0 nm). The fluorescence intensity of FPy1, YPy1 and WPy1 at 585 nm were plotted against the concentration of caspase-1, and a linear regression fitted from the corresponding concentration of caspase-1, and linear regression was applied to determine the slope k. The limit of detection (LoD) was calculated from 3σ/k, in which σ represents the standard deviation of 15 blank measurements. […]
The fluorescence intensity at 585 nm was measured on a Tecan Infinite M1000 Multi-function microplate reader (λex = 510 nm) at 37 °C every 2 minutes. The K M value of probes was determined from the Lineweaver-Burk plot. […]

Substance | fluorescence response to caspase-8
–FLTDG– [FPy1, RhoB donor, hNR quencher] | almost no response
–YVADG– [YPy1, caspase-1-responsive FRET probe with recognition peptide –YVADG–; RhoB donor, hNR quencher] | almost no response
